Data taken from ChEMBL document CHEMBL5380790 (J Med Chem, 2023).
Active and inactive are the calls of the source. The rule behind the calls is not given here.

How the values were obtained:
[1] = target: Mast/stem cell growth factor receptor Kit (Homo sapiens, UniProt P10721, DELTA560/V654A); assay type: cell-based, GIST-430/654
[2] = target: Receptor-type tyrosine-protein kinase FLT3 (Homo sapiens) (UniProt P36888); assay: Inhibition of FLT3 (unknown origin) at 1 uM using 33P-ATP as substrate incubated for 120 mins by radiometric kinase assay
[3] = Metabolic stability in human hepatocytes assessed as intrinsic clearance measured per million cells; assay type: ADME, cell-based, Hepatocyte; details: read-out: CLH
[4] = Apparent passive permeability of compound in human Caco-2 cells at 1 uM and measured after 2 hrs by LC-MS/MS analysis; assay type: ADME, cell-based
[5] = Efflux ratio of apparent permeability from basolateral to apical side over apical to basolateral side in human Caco-2 cells at 1 uM and measured after 2 hrs by LC-MS/MS analysis; assay type: ADME, cell-based
[6] = Dissociation constant, pKa of the compound; assay type: physicochemical
[7] = target: Platelet-derived growth factor receptor alpha (Homo sapiens, UniProt P16234); assay: Inhibition of PDGFRA (unknown origin) at 1 uM using 33P-ATP as substrate incubated for 120 mins by radiometric kinase assay
[8] = target: Macrophage colony-stimulating factor 1 receptor (Homo sapiens, UniProt P07333); assay: Inhibition of CSF1R (unknown origin) at 1 uM using 33P-ATP as substrate incubated for 120 mins by radiometric kinase assay
[9] = target: T1, Mast/stem cell growth factor receptor Kit (Homo sapiens, UniProt P10721); assay: Inhibition of wild type KIT (unknown origin) using 33P-ATP as substrate incubated for 120 mins by radiometric kinase assay
Target sequence in this assay (P10721 whole entry): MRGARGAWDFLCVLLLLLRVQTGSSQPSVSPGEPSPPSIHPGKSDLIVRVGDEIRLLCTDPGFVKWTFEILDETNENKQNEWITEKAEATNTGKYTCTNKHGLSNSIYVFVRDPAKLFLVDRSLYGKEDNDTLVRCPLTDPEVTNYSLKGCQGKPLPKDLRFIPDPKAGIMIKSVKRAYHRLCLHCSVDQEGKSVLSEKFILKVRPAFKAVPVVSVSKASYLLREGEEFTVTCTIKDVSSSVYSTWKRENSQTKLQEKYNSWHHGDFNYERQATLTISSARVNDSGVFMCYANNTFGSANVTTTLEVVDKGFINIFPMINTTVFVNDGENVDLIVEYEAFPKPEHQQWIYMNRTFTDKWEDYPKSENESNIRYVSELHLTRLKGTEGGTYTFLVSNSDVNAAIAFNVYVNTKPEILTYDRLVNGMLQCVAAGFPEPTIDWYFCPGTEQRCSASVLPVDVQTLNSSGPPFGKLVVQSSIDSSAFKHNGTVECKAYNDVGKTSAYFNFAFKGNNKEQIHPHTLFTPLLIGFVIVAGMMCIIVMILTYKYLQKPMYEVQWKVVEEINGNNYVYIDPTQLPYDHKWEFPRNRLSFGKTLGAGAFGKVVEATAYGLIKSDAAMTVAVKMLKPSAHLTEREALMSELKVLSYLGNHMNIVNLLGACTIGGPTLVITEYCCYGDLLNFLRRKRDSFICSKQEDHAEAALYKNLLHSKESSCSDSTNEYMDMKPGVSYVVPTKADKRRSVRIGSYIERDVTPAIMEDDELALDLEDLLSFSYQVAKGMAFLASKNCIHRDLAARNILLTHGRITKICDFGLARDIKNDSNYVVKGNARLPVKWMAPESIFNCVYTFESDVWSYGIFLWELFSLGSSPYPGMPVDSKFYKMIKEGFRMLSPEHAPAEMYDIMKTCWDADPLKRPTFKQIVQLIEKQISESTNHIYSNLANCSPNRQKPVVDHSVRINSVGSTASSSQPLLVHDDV

[10] = target: T1, Mast/stem cell growth factor receptor Kit; assay: Binding affinity to wild type human KIT in human HEK293 cells at 1 uM by NanoBRET assay; assay type: cell-based
Target sequence in this assay (P10721 whole entry): as above

[11] = Genotoxicity in Salmonella typhimurium by Ames test; assay type: toxicity; details: salmonella enterica subsp. enterica serovar typhimurium
[12] = Volume of distribution at steady state in CD-1 mouse at 0.2 mg/kg, iv and measured upto 24 hrs; assay type: ADME, organism-based; details: in vivo, read-out: Vdss
[13] = Half life in Han Wistar rat at 0.2 mg/kg, iv and measured upto 24 hrs; assay type: ADME, organism-based; details: in vivo
[14] = Plasma clearance in Beagle dog at 0.2 mg/kg, iv and measured upto 24 hrs; assay type: ADME, organism-based, Canis lupus familiaris
[15] = Half life in Beagle dog at 0.2 mg/kg, iv and measured upto 24 hrs; assay type: ADME, organism-based, Canis lupus familiaris; details: in vivo
[16] = Oral bioavailability in Beagle dog at 20 mg/kg and measured upto 24 hrs; assay type: ADME, organism-based, Canis lupus familiaris; details: in vivo
[17] = Volume of distribution at steady state in Cynomolgus monkey at 0.2 mg/kg, iv and measured upto 24 hrs; assay type: ADME, organism-based, Macaca fascicularis; details: in vivo, read-out: Vdss
[18] = Half life in Cynomolgus monkey at 0.2 mg/kg, iv and measured upto 24 hrs; assay type: ADME, organism-based, Macaca fascicularis; details: in vivo
[19] = Oral bioavailability in Cynomolgus monkey at 5 mg/kg and measured upto 24 hrs; assay type: ADME, organism-based, Macaca fascicularis; details: in vivo
[20] = tested on: Mast/stem cell growth factor receptor Kit (Homo sapiens), P10721 [V559D]; assay: Inhibition of recombinant human KIT V559D mutant in exon 11 using polyGT and ATP as substrate preincubated for 20 mins followed by substrate addition and measured after 240 mins by FRET assay; details: time 260.0 min
[21] = target: T1, Mast/stem cell growth factor receptor Kit; assay type: cell-based; details: gist430
Target sequence in this assay (P10721 26-976 limits assumed, stated change not applied): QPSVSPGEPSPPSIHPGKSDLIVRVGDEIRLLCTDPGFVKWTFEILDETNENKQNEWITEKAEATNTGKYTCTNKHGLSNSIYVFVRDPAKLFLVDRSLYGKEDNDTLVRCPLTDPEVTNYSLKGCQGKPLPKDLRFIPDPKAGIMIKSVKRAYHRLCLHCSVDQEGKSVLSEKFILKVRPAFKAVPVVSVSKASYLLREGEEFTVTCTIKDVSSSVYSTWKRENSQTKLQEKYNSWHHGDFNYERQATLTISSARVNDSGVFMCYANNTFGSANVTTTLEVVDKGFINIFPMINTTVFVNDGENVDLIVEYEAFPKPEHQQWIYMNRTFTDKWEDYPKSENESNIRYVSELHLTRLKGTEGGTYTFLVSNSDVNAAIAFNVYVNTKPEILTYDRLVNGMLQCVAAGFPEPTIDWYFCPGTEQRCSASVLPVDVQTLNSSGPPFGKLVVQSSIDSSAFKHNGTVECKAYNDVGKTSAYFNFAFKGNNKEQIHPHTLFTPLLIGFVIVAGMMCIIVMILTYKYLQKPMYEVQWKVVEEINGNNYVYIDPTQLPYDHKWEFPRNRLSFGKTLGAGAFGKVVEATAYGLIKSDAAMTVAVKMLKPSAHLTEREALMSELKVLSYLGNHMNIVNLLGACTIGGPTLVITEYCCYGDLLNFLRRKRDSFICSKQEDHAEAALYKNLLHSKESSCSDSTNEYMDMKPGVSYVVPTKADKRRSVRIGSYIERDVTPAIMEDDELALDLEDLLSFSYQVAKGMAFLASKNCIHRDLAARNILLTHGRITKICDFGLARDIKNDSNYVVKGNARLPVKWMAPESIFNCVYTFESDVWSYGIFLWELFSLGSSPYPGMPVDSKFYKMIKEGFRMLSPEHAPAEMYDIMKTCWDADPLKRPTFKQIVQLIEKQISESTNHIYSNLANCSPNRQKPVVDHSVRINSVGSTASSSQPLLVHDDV

GIST-430/654 = assay type: functional, organism-based; details: Homo sapiens, dose 10-35 mg/kg, route po, time 30.0 day

Chain of Mast/stem cell growth factor receptor Kit (Homo sapiens, UniProt P10721, DELTA560/V654A) (P10721 whole entry, looked up, stated change not applied): as the sequence (P10721 whole entry) above
Chain of Mast/stem cell growth factor receptor Kit (Homo sapiens), P10721 [V559D] (P10721 whole entry V559D): as the sequence (P10721 whole entry) above, with V559D counted along it
Chain of Receptor-type tyrosine-protein kinase FLT3 (Homo sapiens) (P36888 whole entry): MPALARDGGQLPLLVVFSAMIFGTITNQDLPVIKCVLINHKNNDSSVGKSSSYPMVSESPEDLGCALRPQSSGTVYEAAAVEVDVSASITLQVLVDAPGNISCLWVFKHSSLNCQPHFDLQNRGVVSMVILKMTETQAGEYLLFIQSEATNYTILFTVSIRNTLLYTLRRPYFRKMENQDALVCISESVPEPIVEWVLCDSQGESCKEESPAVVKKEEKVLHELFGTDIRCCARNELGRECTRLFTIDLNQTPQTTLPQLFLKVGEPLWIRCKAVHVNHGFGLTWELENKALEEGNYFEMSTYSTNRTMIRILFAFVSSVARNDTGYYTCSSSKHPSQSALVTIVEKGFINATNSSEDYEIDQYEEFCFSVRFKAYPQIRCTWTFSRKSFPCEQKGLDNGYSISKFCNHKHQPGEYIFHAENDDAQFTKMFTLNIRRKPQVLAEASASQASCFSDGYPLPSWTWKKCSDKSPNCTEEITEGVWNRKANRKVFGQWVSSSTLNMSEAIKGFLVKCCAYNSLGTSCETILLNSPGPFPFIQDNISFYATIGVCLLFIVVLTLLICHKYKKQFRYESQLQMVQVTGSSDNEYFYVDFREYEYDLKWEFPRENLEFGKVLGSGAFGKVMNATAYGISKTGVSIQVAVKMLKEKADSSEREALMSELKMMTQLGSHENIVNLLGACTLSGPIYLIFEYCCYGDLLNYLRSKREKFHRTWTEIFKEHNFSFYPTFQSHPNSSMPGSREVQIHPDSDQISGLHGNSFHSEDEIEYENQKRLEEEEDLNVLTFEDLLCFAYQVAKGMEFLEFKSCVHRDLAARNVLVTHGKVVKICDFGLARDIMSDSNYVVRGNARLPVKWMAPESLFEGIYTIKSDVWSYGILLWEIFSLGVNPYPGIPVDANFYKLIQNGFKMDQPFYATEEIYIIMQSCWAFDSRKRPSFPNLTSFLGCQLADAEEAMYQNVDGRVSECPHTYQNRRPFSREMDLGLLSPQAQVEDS
Chain of Platelet-derived growth factor receptor alpha (P16234 whole entry): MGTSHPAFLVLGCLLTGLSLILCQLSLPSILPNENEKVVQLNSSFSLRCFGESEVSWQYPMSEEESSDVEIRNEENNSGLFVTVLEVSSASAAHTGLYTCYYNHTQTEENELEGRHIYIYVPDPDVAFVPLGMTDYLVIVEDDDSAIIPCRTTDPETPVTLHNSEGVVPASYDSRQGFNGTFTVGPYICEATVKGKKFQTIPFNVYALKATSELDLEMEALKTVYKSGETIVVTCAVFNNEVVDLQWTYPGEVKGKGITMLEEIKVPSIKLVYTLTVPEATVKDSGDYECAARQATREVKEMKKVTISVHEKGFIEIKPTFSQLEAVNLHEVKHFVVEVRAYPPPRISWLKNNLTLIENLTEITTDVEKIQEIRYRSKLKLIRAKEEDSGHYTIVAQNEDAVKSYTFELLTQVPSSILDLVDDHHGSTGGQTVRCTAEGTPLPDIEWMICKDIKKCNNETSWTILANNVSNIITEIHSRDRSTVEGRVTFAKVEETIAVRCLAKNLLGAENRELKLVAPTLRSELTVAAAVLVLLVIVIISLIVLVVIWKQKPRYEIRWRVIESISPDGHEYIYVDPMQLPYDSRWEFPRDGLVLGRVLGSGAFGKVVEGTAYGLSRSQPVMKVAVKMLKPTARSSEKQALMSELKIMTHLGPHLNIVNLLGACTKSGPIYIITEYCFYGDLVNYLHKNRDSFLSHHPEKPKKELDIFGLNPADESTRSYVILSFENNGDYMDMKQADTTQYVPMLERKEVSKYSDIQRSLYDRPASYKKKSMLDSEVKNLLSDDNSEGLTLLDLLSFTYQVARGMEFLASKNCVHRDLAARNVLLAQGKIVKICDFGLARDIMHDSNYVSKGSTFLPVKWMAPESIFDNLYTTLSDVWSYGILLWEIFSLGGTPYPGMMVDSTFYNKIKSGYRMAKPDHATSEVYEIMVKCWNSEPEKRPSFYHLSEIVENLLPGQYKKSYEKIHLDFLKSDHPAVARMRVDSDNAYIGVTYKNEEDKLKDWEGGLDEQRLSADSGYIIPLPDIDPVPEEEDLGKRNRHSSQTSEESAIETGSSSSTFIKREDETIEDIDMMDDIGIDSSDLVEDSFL
Chain of Macrophage colony-stimulating factor 1 receptor (P07333 whole entry): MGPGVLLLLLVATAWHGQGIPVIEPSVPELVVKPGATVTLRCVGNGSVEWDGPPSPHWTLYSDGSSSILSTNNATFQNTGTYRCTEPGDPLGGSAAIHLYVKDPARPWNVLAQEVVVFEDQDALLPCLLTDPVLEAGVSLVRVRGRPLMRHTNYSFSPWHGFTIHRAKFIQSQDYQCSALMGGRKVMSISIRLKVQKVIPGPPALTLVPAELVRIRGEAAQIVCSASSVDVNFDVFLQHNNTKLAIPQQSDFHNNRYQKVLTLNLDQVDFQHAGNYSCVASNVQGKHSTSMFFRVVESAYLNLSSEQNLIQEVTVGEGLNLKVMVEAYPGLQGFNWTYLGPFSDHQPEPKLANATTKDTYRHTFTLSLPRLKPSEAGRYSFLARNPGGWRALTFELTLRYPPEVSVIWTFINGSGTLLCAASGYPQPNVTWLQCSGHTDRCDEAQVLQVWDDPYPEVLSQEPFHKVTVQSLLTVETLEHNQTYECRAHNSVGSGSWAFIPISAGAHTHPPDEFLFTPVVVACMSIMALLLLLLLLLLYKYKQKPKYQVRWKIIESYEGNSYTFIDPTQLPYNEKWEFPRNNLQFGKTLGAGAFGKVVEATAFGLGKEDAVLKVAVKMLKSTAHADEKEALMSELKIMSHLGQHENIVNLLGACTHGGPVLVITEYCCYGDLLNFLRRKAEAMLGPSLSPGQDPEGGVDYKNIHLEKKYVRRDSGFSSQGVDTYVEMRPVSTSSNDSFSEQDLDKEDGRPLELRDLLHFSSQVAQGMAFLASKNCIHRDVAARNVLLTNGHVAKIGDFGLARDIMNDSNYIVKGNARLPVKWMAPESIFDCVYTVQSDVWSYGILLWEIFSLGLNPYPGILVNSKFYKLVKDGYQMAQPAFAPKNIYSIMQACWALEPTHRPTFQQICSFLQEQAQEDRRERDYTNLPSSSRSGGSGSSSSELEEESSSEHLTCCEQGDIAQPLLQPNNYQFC

IC50 [1]: 48 nM | inhibition [2]: > 80% | hepatocyte CLint [3]: 21 µL/min/1e6 cells | Papp at 2 h, 1 µM [4]: 5.7 ×10⁻⁶ cm/s | efflux ratio at 2 h, 1 µM [5]: 14 | pKa [6]: 9.7 | inhibition [7]: > 80% | inhibition [8]: > 80% | IC50 [9]: 44 nM | Activity [10]: 65% | Vd [12]: 11 L/kg | half-life [13]: 6.8 h | clearance [14]: 36.7 mL/min/kg | half-life [15]: 9.6 h | bioavailability [16]: 80% | Vd [17]: 12.4 L/kg | half-life [18]: 4.4 h | bioavailability [19]: 31% | inhibition [20]: Active | IC50 [21]: 4 nM
SMILES: Cn1cc(-c2ccc(CNc3cc(-c4cnc5cc(OCCCN6CCCC6)ccn45)ncn3)cc2)cn1 [IDRX-42]
Activity [11]: Non-Toxic | inhibition (GIST-430/654): Dose-Dependent Effect
